In ChEMBL document CHEMBL4673218, “Kojyl cinnamate esters are peroxisome proliferator-activated receptor α/γ dual agonists” (Bioorg Med Chem, 2018):
The source made the active and inactive calls. The calls are words filed in the database; no cut-off is given here.

Key:
[1] = target: T1, PPAR alpha/gamma (Homo sapiens) (UniProt P37231+Q07869); experiment: Agonist activity at PPARalpha/PPARgamma in human AT-MSC cells assessed as upregulation of HMGCR mRNA at 10 uM incubated for 3 days by qRT-PCR analysis; type: cell-based; conditions: Adipose tissue derived mesenchymal stem cell, filed as agonist, time 3.0 day
[2] = target: T1, PPAR alpha/gamma (Homo sapiens); experiment: Agonist activity at PPARalpha/PPARgamma in human AT-MSC cells assessed as upregulation of FABP4 mRNA at 10 uM incubated for 3 days by qRT-PCR analysis; type: cell-based; conditions: Adipose tissue derived mesenchymal stem cell, filed as agonist, time 3.0 day
[3] = target: T2, Peroxisome proliferator-activated receptor gamma (Homo sapiens) (UniProt P37231); experiment: (§1) Binding affinity to human recombinant PPARgamma by Cheng-Prusoff equation based competitive binding TR-FRET assay; conditions: filed as agonist
T2 sequence (whole entry): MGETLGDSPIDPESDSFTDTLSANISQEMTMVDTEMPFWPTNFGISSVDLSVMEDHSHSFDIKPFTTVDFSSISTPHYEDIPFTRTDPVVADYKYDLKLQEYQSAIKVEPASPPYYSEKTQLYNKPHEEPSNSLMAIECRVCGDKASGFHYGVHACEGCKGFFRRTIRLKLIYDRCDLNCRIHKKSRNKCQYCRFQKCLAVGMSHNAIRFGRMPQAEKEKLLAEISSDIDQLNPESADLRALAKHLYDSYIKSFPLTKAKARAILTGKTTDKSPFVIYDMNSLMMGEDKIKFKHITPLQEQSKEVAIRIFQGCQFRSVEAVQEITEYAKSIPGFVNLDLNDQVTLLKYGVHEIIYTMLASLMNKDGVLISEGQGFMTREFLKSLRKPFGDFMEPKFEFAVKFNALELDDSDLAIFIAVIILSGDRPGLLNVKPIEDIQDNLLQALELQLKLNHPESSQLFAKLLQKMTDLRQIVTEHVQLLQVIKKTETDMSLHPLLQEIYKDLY

[4] = target: T3, Peroxisome proliferator-activated receptor gamma (Homo sapiens, UniProt P37231); experiment: as §1
T3 sequence (P37231 whole entry): T2 sequence (whole entry)

[5] = target: T4, Peroxisome proliferator-activated receptor alpha (Homo sapiens) (UniProt Q07869); experiment: (§2) Binding affinity to human recombinant PPARalpha by Cheng-Prusoff equation based competitive binding TR-FRET assay; conditions: filed as agonist
T4 sequence (whole entry): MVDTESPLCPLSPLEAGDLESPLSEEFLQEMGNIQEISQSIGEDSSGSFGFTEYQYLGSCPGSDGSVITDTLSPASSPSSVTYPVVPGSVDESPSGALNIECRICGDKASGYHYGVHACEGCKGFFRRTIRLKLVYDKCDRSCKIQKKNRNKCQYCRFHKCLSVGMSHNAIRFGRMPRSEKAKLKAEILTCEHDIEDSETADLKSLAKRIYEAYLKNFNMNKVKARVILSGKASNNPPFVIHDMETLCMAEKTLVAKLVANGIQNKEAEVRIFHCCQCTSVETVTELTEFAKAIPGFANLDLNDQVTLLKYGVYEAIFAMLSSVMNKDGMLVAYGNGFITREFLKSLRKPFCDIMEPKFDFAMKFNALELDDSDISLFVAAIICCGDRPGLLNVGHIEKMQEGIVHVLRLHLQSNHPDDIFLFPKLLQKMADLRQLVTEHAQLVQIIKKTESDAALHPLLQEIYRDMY

[6] = target: T5, Peroxisome proliferator-activated receptor alpha (Homo sapiens, UniProt Q07869); experiment: as §2
T5 sequence (Q07869 whole entry): T4 sequence (whole entry)

[7] = target: T2, Peroxisome proliferator-activated receptor gamma (Homo sapiens); experiment: Binding affinity to human recombinant PPARgamma at 30 uM by competitive binding based TR-FRET assay relative to control; conditions: filed as agonist
[8] = test system: Adipose tissue derived mesenchymal stem cell; experiment: Induction of adipogenesis in human AT-MSC cells assessed as increase in lipid droplet at 30 uM in IDX medium incubated for 5 days by Oil Red O staining based inverted phase microscopy relative to IDX control; type: functional; conditions: time 5.0 day
[9] = Induction of adipogenesis in human AT-MSC assessed as adiponectin secretion at 30 uM in IDX medium incubated for 5 days by ELISA relative to IDX control; type: functional, Adipose tissue derived mesenchymal stem cell; conditions: time 5 day
[10] = test system: Adipose tissue derived mesenchymal stem cell; experiment: Induction of adipogenesis in human AT-MSC cells assessed as increase in intracellular lipid accumulation at 30 uM in IDX medium incubated for 5 days by Oil Red O staining based inverted phase microscopy relative to IDX control; type: functional; conditions: time 5.0 day
[11] = Induction of adipogenesis in human AT-MSC assessed as adiponectin secretion at 30 uM in IDX medium incubated for 5 days by ELISA (reference value: 100 +/- 15 pg/ml); type: functional, Adipose tissue derived mesenchymal stem cell; conditions: time 5 day
NHEK [12] = experiment: Inhibition of UVB-induced MMP1 level in human NHEK cells at 10 uM incubated for 24 hrs by ELISA; type: functional, cell-based
NHEK [13] = experiment: Inhibition of UVB-induced PGE2 level in human NHEK cells at 10 uM incubated for 24 hrs by ELISA; type: functional, cell-based
NHEK [14] = experiment: Inhibition of UVB-induced PTGS2 mRNA in human NHEK cells at 10 uM incubated for 24 hrs by qRT-PCR analysis; type: functional, cell-based
[15] = target: T1, PPAR alpha/gamma (Homo sapiens); experiment: Agonist activity at PPARalpha/PPARgamma in human NHEK cells assessed as upregulation of FASN mRNA at 10 uM incubated for 3 days by qRT-PCR analysis; type: cell-based; conditions: time 3.0 day
[16] = target: T1, PPAR alpha/gamma (Homo sapiens); experiment: Agonist activity at PPARalpha/PPARgamma in human NHEK cells assessed as upregulation of HMGCR mRNA at 10 uM incubated for 3 days by qRT-PCR analysis; type: cell-based; conditions: time 3.0 day
[17] = target: T1, PPAR alpha/gamma (Homo sapiens); experiment: Agonist activity at PPARalpha/PPARgamma in human NHEK cells assessed as upregulation of SCD1 mRNA at 10 uM incubated for 3 days by qRT-PCR analysis; type: cell-based; conditions: filed as agonist, time 3.0 day
[18] = target: T1, PPAR alpha/gamma (Homo sapiens); experiment: Agonist activity at PPARalpha/PPARgamma in human NHEK cells assessed as upregulation of HMGCS2 mRNA at 10 uM incubated for 3 days by qRT-PCR analysis; type: cell-based; conditions: filed as agonist, time 3.0 day
[19] = target: T1, PPAR alpha/gamma (Homo sapiens); experiment: Agonist activity at PPARalpha/PPARgamma in human AT-MSC cells assessed as upregulation of FADS2 mRNA at 10 uM incubated for 3 days by qRT-PCR analysis; type: cell-based; conditions: Adipose tissue derived mesenchymal stem cell, filed as agonist, time 3.0 day
[20] = target: T1, PPAR alpha/gamma (Homo sapiens); experiment: Agonist activity at PPARalpha/PPARgamma in human AT-MSC cells assessed as upregulation of ACACB mRNA at 10 uM incubated for 3 days by qRT-PCR analysis; type: cell-based; conditions: Adipose tissue derived mesenchymal stem cell, filed as agonist, time 3.0 day
[21] = target: T1, PPAR alpha/gamma (Homo sapiens); experiment: Agonist activity at PPARalpha/PPARgamma in human AT-MSC cells assessed as upregulation of HMGCS2 mRNA at 10 uM incubated for 3 days by qRT-PCR analysis; type: cell-based; conditions: Adipose tissue derived mesenchymal stem cell, filed as agonist, time 3.0 day

With `COc1ccc(OC)c(/C=C/C(=O)OCc2cc(=O)c(O)co2)c1` the Activity [1] was “Active”, the Activity [2] was “Active” and the Activity [3] was “Dose-dependent effect”. The Ki [4] was 7 µM, the Activity [5] was “Dose-dependent effect” and the Ki [6] was 9.5 µM. The Activity [7] was 77%, the Activity [8] was “Active” and the “fold change (FC)” value [9] was 3.83. For the same compound, the Activity [10] was “Active”, the Activity [11] was 383 pg/mL and the inhibition (NHEK [12]) was “Active”. For the same compound, the inhibition (NHEK [13]) was “Active”, the inhibition (NHEK [14]) was “Active” and the Activity [15] was “inactive”. For the same compound, the Activity [16] was “inactive”, the Activity [17] was “Active” and the Activity [18] was “Active”. For the same compound, the Activity [19] was “Active”, the Activity [20] was “Active” and the Activity [21] was “Active”.
